Where a SMILES comes first, the peptide text is derived from it. Bridges are numbered along the chain shown (N, C = ends). [ ]: non-standard residue; d: D form. Bip = N[C@@H](Cc1ccc(-c2ccccc2)cc1)C(=O)O; Cit = NC(=O)NCCC[C@H](N)C(=O)O; dOrn = NCCC[C@@H](N)C(=O)O; dDab = NCC[C@@H](N)C(=O)O; Orn = NCCC[C@H](N)C(=O)O; dDap = NC[C@@H](N)C(=O)O; Dab = NCC[C@H](N)C(=O)O; Dap = NC[C@H](N)C(=O)O
target: T1, human PD-1 / PD-L1-Ig binding on Jurkat cell line over-expressing human PD-1 (Jurkat-PD-1) (Homo sapiens, UniProt Q15116); experiment: Jurkat-PD-1 Cell Binding High-Content Screening Assay (CBA); type: cell-based; conditions: Jurkat-PD-1 cells, PE-labeled PD-L1-Ig 20 nM final; read-out: Jurkat HPD1_PDL1 IC50
T1 construct: expressed in transfected cells; host or cells: Jurkat
T1 sequence (Q15116 25-288): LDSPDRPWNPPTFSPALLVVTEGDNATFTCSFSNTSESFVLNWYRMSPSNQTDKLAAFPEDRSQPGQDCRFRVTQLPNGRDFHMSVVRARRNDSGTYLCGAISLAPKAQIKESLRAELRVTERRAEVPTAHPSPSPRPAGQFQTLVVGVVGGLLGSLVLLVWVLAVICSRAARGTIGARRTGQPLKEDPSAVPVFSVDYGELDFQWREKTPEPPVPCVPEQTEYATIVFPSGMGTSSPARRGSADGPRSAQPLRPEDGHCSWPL
Method in brief: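 Read-out: high-content imaging of PE-tagged PD-L1-Ig bound to Jurkat cells overexpressing human PD-1, after fixation with 4% paraformaldehyde and Hoechst 33342 nuclear staining. Ligand was used at 20 nM final for 1 hour, after a 2 h compound exposure at 37° C in serum-containing DMEM.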

Q: How did the IC50 turn out when CC(C)C[C@@H]1NC(=O)[C@H](CCN)NC(=O)[C@@H](CC(C)C)NC(=O)[C@H](CCCN)NC(=O)[C@H](CCCNC(N)=O)NC(=O)[C@H](Cc2ccc(-c3ccccc3)cc2)NC(=O)[C@H](C(C)C)NC(=O)[C@H](Cc2c[nH]c3ccccc23)NC(=O)[C@H](CC(=O)O)NC(=O)[C@H](Cc2ccc(O)cc2)NC(=O)[C@H](CC(N)=O)NC(=O)CSC[C@@H](C(=O)N[C@@H](C)C(N)=O)NC(=O)[C@H]([C@@H](C)O)NC(=O)[C@H](C(C)C)NC1=O [Compound 1017] ({CH2CO}-NYDWV[Bip][Cit][Orn][dL][Dab]LVTCA-NH2; thioether N-14) was run?
A: Its IC50 is 20.3 nM.

Q: For CC(C)C[C@@H]1NC(=O)[C@H](CCN)NC(=O)[C@@H](CC(C)C)NC(=O)[C@H](CCN)NC(=O)[C@H](CCCNC(N)=O)NC(=O)[C@H](Cc2ccc(-c3ccccc3)cc2)NC(=O)[C@H](C(C)C)NC(=O)[C@H](Cc2c[nH]c3ccccc23)NC(=O)[C@H](CC(=O)O)NC(=O)[C@H](Cc2ccc(O)cc2)NC(=O)[C@H](CC(N)=O)NC(=O)CSC[C@@H](C(=O)N[C@@H](C)C(N)=O)NC(=O)[C@H]([C@@H](C)O)NC(=O)[C@H](C(C)C)NC1=O [Compound 1018] ({CH2CO}-NYDWV[Bip][Cit][Dab][dL][Dab]LVTCA-NH2; thioether N-14), which IC50 is on record?
A: The IC50 was 20.7 nM.

Q: Which IC50 does the source give for CC(C)C[C@@H]1NC(=O)[C@H](CCN)NC(=O)[C@@H](CC(C)C)NC(=O)[C@H](CCCCN)NC(=O)[C@H](CCCNC(N)=O)NC(=O)[C@H](Cc2ccc(-c3ccccc3)cc2)NC(=O)[C@H](C(C)C)NC(=O)[C@H](Cc2c[nH]c3ccccc23)NC(=O)[C@H](CC(=O)O)NC(=O)[C@H](Cc2ccc(O)cc2)NC(=O)[C@H](CC(N)=O)NC(=O)CSC[C@@H](C(=O)N[C@@H](C)C(N)=O)NC(=O)[C@H]([C@@H](C)O)NC(=O)[C@H](C(C)C)NC1=O [Compound 1019] ({CH2CO}-NYDWV[Bip][Cit]K[dL][Dab]LVTCA-NH2; thioether N-14) here?
A: Its IC50 is 20.6 nM.

Q: With CC(C)C[C@@H]1NC(=O)[C@H](CCN)NC(=O)[C@@H](CC(C)C)NC(=O)[C@@H](CC(=O)O)NC(=O)[C@H](C(C)C)NC(=O)[C@H](Cc2ccc(-c3ccccc3)cc2)NC(=O)[C@H](C(C)C)NC(=O)[C@H](Cc2c[nH]c3ccccc23)NC(=O)[C@H](CC(=O)O)NC(=O)[C@H](Cc2ccc(O)cc2)NC(=O)[C@H](CC(N)=O)NC(=O)CSC[C@@H](C(=O)N[C@@H](C)C(N)=O)NC(=O)[C@H]([C@@H](C)O)NC(=O)[C@H](C(C)C)NC1=O [Compound 1021] ({CH2CO}-NYDWV[Bip]V[dD][dL][Dab]LVTCA-NH2; thioether N-14) as the compound, how does the IC50 read?
A: The IC50 was 26.8 nM.

Q: For CC(C)C[C@@H]1NC(=O)[C@H](CCN)NC(=O)[C@@H](CC(C)C)NC(=O)[C@@H](CN)NC(=O)[C@H](C(C)C)NC(=O)[C@H](Cc2ccc(-c3ccccc3)cc2)NC(=O)[C@H](C(C)C)NC(=O)[C@H](Cc2c[nH]c3ccccc23)NC(=O)[C@H](CC(=O)O)NC(=O)[C@H](Cc2ccc(O)cc2)NC(=O)[C@H](CC(N)=O)NC(=O)CSC[C@@H](C(=O)N[C@@H](C)C(N)=O)NC(=O)[C@H]([C@@H](C)O)NC(=O)[C@H](C(C)C)NC1=O [Compound 1022] ({CH2CO}-NYDWV[Bip]V[dDap][dL][Dab]LVTCA-NH2; thioether N-14), which IC50 is on record?
A: The IC50 was 17.7 nM.

Q: For CC(C)C[C@@H]1NC(=O)[C@H](CCN)NC(=O)[C@@H](CC(C)C)NC(=O)[C@@H](CCN)NC(=O)[C@H](C(C)C)NC(=O)[C@H](Cc2ccc(-c3ccccc3)cc2)NC(=O)[C@H](C(C)C)NC(=O)[C@H](Cc2c[nH]c3ccccc23)NC(=O)[C@H](CC(=O)O)NC(=O)[C@H](Cc2ccc(O)cc2)NC(=O)[C@H](CC(N)=O)NC(=O)CSC[C@@H](C(=O)N[C@@H](C)C(N)=O)NC(=O)[C@H]([C@@H](C)O)NC(=O)[C@H](C(C)C)NC1=O [Compound 1023] ({CH2CO}-NYDWV[Bip]V[dDab][dL][Dab]LVTCA-NH2; thioether N-14), which IC50 is on record?
A: The IC50 was 4.6 nM.

Q: Which IC50 does the source give for CC(C)C[C@@H]1NC(=O)[C@H](CCN)NC(=O)[C@@H](CC(C)C)NC(=O)[C@H](CN)NC(=O)[C@H](CCCNC(N)=O)NC(=O)[C@H](Cc2ccc(-c3ccccc3)cc2)NC(=O)[C@H](C(C)C)NC(=O)[C@H](Cc2c[nH]c3ccccc23)NC(=O)[C@H](CC(=O)O)NC(=O)[C@H](Cc2ccc(O)cc2)NC(=O)[C@H](CC(N)=O)NC(=O)CSC[C@@H](C(=O)N[C@@H](C)C(N)=O)NC(=O)[C@H]([C@@H](C)O)NC(=O)[C@H](C(C)C)NC1=O [Compound 1024] ({CH2CO}-NYDWV[Bip][Cit][Dap][dL][Dab]LVTCA-NH2; thioether N-14) here?
A: Its IC50 is 37.3 nM.

Q: How did the IC50 turn out when CC(C)C[C@@H]1NC(=O)[C@H](CCN)NC(=O)[C@@H](CC(C)C)NC(=O)[C@H](CCCCN)NC(=O)[C@H](C(C)C)NC(=O)[C@H](Cc2ccc(-c3ccccc3)cc2)NC(=O)[C@H](C(C)C)NC(=O)[C@H](Cc2c[nH]c3ccccc23)NC(=O)[C@H](CC(=O)O)NC(=O)[C@H](Cc2ccc(O)cc2)NC(=O)[C@H](CC(N)=O)NC(=O)CSC[C@@H](C(=O)N[C@@H](C)C(N)=O)NC(=O)[C@H]([C@@H](C)O)NC(=O)[C@H](C(C)C)NC1=O [Compound 1025] ({CH2CO}-NYDWV[Bip]VK[dL][Dab]LVTCA-NH2; thioether N-14) was run?
A: Its IC50 is 11 nM.

Q: Which IC50 does the source give for CC(C)C[C@@H]1NC(=O)[C@H](CCN)NC(=O)[C@@H](CC(C)C)NC(=O)[C@@H](C)NC(=O)[C@H](C(C)C)NC(=O)[C@H](Cc2ccc(-c3ccccc3)cc2)NC(=O)[C@H](C(C)C)NC(=O)[C@H](Cc2c[nH]c3ccccc23)NC(=O)[C@H](CC(=O)O)NC(=O)[C@H](Cc2ccc(O)cc2)NC(=O)[C@H](CC(N)=O)NC(=O)CSC[C@@H](C(=O)N[C@@H](C)C(N)=O)NC(=O)[C@H]([C@@H](C)O)NC(=O)[C@H](C(C)C)NC1=O [Compound 1026] ({CH2CO}-NYDWV[Bip]V[dA][dL][Dab]LVTCA-NH2; thioether N-14) here?
A: The IC50 was 10.8 nM.

Q: How did the IC50 turn out when CC(C)C[C@@H]1NC(=O)[C@H](CCN)NC(=O)[C@@H](CC(C)C)NC(=O)[C@@H](CCCN)NC(=O)[C@H](C(C)C)NC(=O)[C@H](Cc2ccc(-c3ccccc3)cc2)NC(=O)[C@H](C(C)C)NC(=O)[C@H](Cc2c[nH]c3ccccc23)NC(=O)[C@H](CC(=O)O)NC(=O)[C@H](Cc2ccc(O)cc2)NC(=O)[C@H](CC(N)=O)NC(=O)CSC[C@@H](C(=O)N[C@@H](C)C(N)=O)NC(=O)[C@H]([C@@H](C)O)NC(=O)[C@H](C(C)C)NC1=O [Compound 1027] ({CH2CO}-NYDWV[Bip]V[dOrn][dL][Dab]LVTCA-NH2; thioether N-14) was run?
A: The IC50 was 19.5 nM.

Q: How did the IC50 turn out when CC(C)C[C@@H]1NC(=O)[C@H](CCN)NC(=O)[C@@H](CC(C)C)NC(=O)[C@H](CN)NC(=O)[C@H](C(C)C)NC(=O)[C@H](Cc2ccc(-c3ccccc3)cc2)NC(=O)[C@H](C(C)C)NC(=O)[C@H](Cc2c[nH]c3ccccc23)NC(=O)[C@H](CC(=O)O)NC(=O)[C@H](Cc2ccc(O)cc2)NC(=O)[C@H](CC(N)=O)NC(=O)CSC[C@@H](C(=O)N[C@@H](C)C(N)=O)NC(=O)[C@H]([C@@H](C)O)NC(=O)[C@H](C(C)C)NC1=O [Compound 1028] ({CH2CO}-NYDWV[Bip]V[Dap][dL][Dab]LVTCA-NH2; thioether N-14) was run?
A: The IC50 was 14.3 nM.

Q: For CC(C)C[C@@H]1NC(=O)[C@H](CCN)NC(=O)[C@@H](CC(C)C)NC(=O)[C@H](CCN)NC(=O)[C@H](C(C)C)NC(=O)[C@H](Cc2ccc(-c3ccccc3)cc2)NC(=O)[C@H](C(C)C)NC(=O)[C@H](Cc2c[nH]c3ccccc23)NC(=O)[C@H](CC(=O)O)NC(=O)[C@H](Cc2ccc(O)cc2)NC(=O)[C@H](CC(N)=O)NC(=O)CSC[C@@H](C(=O)N[C@@H](C)C(N)=O)NC(=O)[C@H]([C@@H](C)O)NC(=O)[C@H](C(C)C)NC1=O [Compound 1029] ({CH2CO}-NYDWV[Bip]V[Dab][dL][Dab]LVTCA-NH2; thioether N-14), which IC50 is on record?
A: Its IC50 is 5.4 nM.
